Like-named read-outs stand apart in the source and are kept apart here. Numbered stars: 1 amine (or outer) side, 2 acyl side, 3 side chain; on linkers, the order of the positions; unused ones are H or OH. Square brackets hold non-standard residues; d marks the D form. Side chains are listed from the residue outwards. Peptide text beside a SMILES is read from it. * marks the point of attachment. C20 diacid = O=C(O)CCCCCCCCCCCCCCCCCCC(=O)*; γGlu = O=C(O)[C@H](CCC(=O)[*:2])N[*:1]; AEEA = NCCOCCOCC(=O)O; Aib = CC(C)(N)C(=O)O
Legend:
[1] = Turbidity of crude library peptides (absorbance at 600 nm); assay type: physicochemical; conditions: Physical stability of peptides
Summary of the method: (§1)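 Turbidity is the absorbance at 600 nm, taken before heating. Fibril signal is the mean ThT emission at 480 nm (450 nm excitation), read every 10 min over 72 h at 40° C with 700 rpm shaking between reads. Peptides at 267 μM, pH 4.0 acetate or pH 7.0 phosphate buffer (50 mM), 4 μM ThT final.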

[2] = Fibril formation of crude library peptides (Thioflavin T); assay type: physicochemical; set-up: key: average ThT fluorescence emission at 480 nm (ex 450 nm), raw units; conditions: Physical stability of peptides
Summary of the method: as §1

[3] = molecular target: GLP1R (Homo sapiens, UniProt P43220); experiment: hGLP1R potency, cAMP accumulation in CHO-K1 cells stably overexpressing hGLP1R; assay type: cell-based; set-up: host or cells: CHO-K1; conditions: for EC50: cAMP accumulation, CHO-K1 cells overexpressing hGLP1R; for SCTR EC50/GLP1R EC50 ratio: selectivity for hGLP1R over hSCTR, cAMP accumulation in CHO-K1 cells; for Selectivity: SCTR EC50/GLP1R EC50 ratio
Summary of the method: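 EC50 derives from variable-slope nonlinear regression of cAMP HTRF signal, with purified peptides tested as 11 three-fold dilutions in duplicate. Assay: hGLP1R-overexpressing CHO-K1 cells, 0.5 mM IBMX, 0.05% casein in DPBS, 30 min room-temperature stimulation, GLP-1(7-36) as reference agonist.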

[4] = molecular target: SCTR (Homo sapiens, UniProt P47872); experiment: hSCTR potency, cAMP accumulation in CHO-K1 cells stably overexpressing hSCTR; assay type: cell-based; set-up: alternatively Euroscreen ES-712-AF; FAST-0161L; host or cells: CHO-K1; conditions: cAMP accumulation, CHO-K1 cells overexpressing hSCTR
Summary of the method: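 EC50 derived from variable-slope nonlinear regression on 11-point, 3-fold series run in duplicate (crude peptides: 5 points, 10-fold, n=1). Compound stimulation lasted 30 min at room temperature in casein/IBMX-containing DPBS (0.05%, 0.5 mM), 2000 cells/well; cAMP detected by time-resolved FRET after one hour.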

[5] = read-out: hGLP1R pEC50 (converted)
[6] = read-out: hSCTR pEC50 (converted)
[7] = read-out: pEC50 hGLPR1 (converted)
[8] = read-out: pEC50 hSCTR (converted)

Chain of GLP1R (P43220 24-463): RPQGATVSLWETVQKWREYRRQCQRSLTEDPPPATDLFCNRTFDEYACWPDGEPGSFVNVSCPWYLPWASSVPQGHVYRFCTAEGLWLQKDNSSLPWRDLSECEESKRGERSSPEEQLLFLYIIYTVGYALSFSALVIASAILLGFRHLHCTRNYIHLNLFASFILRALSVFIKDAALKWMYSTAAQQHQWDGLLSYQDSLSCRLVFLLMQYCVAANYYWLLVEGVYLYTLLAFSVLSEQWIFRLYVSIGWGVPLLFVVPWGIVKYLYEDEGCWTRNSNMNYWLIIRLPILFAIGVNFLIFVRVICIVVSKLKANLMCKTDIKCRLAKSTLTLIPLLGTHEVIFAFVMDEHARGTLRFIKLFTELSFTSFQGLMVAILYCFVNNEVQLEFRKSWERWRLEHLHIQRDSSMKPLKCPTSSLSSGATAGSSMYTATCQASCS
Chain of SCTR (P47872 23-440): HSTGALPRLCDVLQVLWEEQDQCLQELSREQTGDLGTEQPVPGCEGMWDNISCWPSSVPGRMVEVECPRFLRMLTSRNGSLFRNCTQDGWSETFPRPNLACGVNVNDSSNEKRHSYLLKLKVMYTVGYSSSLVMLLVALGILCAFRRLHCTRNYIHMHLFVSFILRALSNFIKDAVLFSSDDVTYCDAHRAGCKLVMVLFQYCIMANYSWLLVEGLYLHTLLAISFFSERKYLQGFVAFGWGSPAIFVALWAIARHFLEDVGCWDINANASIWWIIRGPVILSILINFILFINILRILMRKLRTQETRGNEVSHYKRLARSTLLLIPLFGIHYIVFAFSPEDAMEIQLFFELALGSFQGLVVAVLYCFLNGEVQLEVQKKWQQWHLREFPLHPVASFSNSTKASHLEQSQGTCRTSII

Compound	Turbidity (pH 7) [1]	Fibril formation [2]	EC50 [3, 5] [nM]	SCTR EC50/GLP1R EC50 ratio [3]	EC50 [4, 6] [nM]	Selectivity [3]	EC50 [3, 7] [nM]	EC50 [4, 8] [nM]
CC(C)C[C@H](NC(=O)[C@H](Cc1ccccc1)NC(=O)[C@H](CCCNC(=N)N)NC(=O)[C@H](CCC(N)=O)NC(=O)[C@H](CC(C)C)NC(=O)C(C)(C)NC(=O)[C@H](C)NC(=O)[C@H](CCC(=O)O)NC(=O)[C@H](CCC(=O)O)NC(=O)[C@H](CCCCNC(=O)COCCOCCNC(=O)COCCOCCNC(=O)CC[C@H](NC(=O)CCCCCCCCCCCCCCCCCCC(=O)O)C(=O)O)NC(=O)[C@H](CC(C)C)NC(=O)[C@H](CC(N)=O)NC(=O)[C@H](CO)NC(=O)[C@@H](NC(=O)[C@H](CC(=O)O)NC(=O)[C@H](CO)NC(=O)[C@@H](NC(=O)[C@H](Cc1ccccc1)NC(=O)[C@@H](NC(=O)CNC(=O)[C@H](CCC(=O)O)NC(=O)C(C)(C)NC(=O)[C@@H](N)Cc1c[nH]cn1)[C@@H](C)O)[C@@H](C)O)C(C)C)C(=O)N[C@@H](CCC(=O)O)C(=O)N[C@@H](Cc1c[nH]cn1)C(=O)N[C@@H](CC(C)C)C(=O)N[C@H](C(N)=O)C(C)C [compound 136] (H-H[Aib]EGTFTSDVSNLK([AEEA-AEEA-γGlu-C20 diacid])EEA[Aib]LQRFLEHLV-NH2)	0.08	3353	0.0126	857	12.6	–	–	–
CC[C@H](C)[C@H](NC(=O)[C@H](Cc1ccccc1)NC(=O)[C@H](CCCNC(=N)N)NC(=O)[C@H](CCC(N)=O)NC(=O)[C@H](CC(C)C)NC(=O)[C@H](C)NC(=O)[C@H](C)NC(=O)CNC(=O)[C@H](CCC(=O)O)NC(=O)[C@H](CC(C)C)NC(=O)[C@H](CC(C)C)NC(=O)[C@H](Cc1ccc(O)cc1)NC(=O)[C@H](CO)NC(=O)[C@@H](NC(=O)[C@H](CC(=O)O)NC(=O)[C@H](CO)NC(=O)[C@@H](NC(=O)[C@H](Cc1ccccc1)NC(=O)[C@@H](NC(=O)CNC(=O)[C@H](CCC(=O)O)NC(=O)C(C)(C)NC(=O)[C@@H](N)Cc1c[nH]cn1)[C@@H](C)O)[C@@H](C)O)C(C)C)C(=O)N[C@@H](CCC(N)=O)C(=O)N[C@@H](Cc1c[nH]c2ccccc12)C(=O)N[C@@H](CC(C)C)C(=O)N[C@H](C(N)=O)C(C)C [compound 181] (H-H[Aib]EGTFTSDVSYLLEGAALQRFIQWLV-NH2)	0.69	257400	0.0501	4280	200	–	–	–
CC(C)C[C@H](NC(=O)[C@H](Cc1ccccc1)NC(=O)[C@H](CCCNC(=N)N)NC(=O)[C@H](CCC(N)=O)NC(=O)[C@@H](NC(=O)[C@H](C)NC(=O)[C@H](C)NC(=O)[C@@H](NC(=O)[C@H](CCC(=O)O)NC(=O)[C@H](CCCCNC(=O)COCCOCCNC(=O)COCCOCCNC(=O)CC[C@H](NC(=O)CCCCCCCCCCCCCCCCCCC(=O)O)C(=O)O)NC(=O)[C@H](CC(C)C)NC(=O)[C@H](CCCNC(=N)N)NC(=O)[C@H](CO)NC(=O)[C@@H](NC(=O)[C@H](CC(=O)O)NC(=O)[C@H](CO)NC(=O)[C@@H](NC(=O)[C@H](Cc1ccccc1)NC(=O)[C@@H](NC(=O)CNC(=O)[C@H](CCC(=O)O)NC(=O)C(C)(C)NC(=O)[C@@H](N)Cc1c[nH]cn1)[C@@H](C)O)[C@@H](C)O)C(C)C)[C@@H](C)O)[C@@H](C)O)C(=O)N[C@@H](CCC(=O)O)C(=O)N[C@@H](Cc1c[nH]cn1)C(=O)N[C@@H](CC(C)C)C(=O)N[C@H](C(N)=O)C(C)C [compound 26] (H-H[Aib]EGTFTSDVSRLK([AEEA-AEEA-γGlu-C20 diacid])ETAATQRFLEHLV-NH2)	0.08	97558	–	–	–	4577	0.0126	63.1
CC(C)C[C@H](NC(=O)[C@H](Cc1ccccc1)NC(=O)[C@H](CCCNC(=N)N)NC(=O)[C@H](CCC(N)=O)NC(=O)[C@H](CCC(N)=O)NC(=O)[C@H](C)NC(=O)[C@H](C)NC(=O)[C@H](Cc1ccccc1)NC(=O)[C@H](CCC(=O)O)NC(=O)[C@H](CCCCNC(=O)COCCOCCNC(=O)COCCOCCNC(=O)CC[C@H](NC(=O)CCCCCCCCCCCCCCCCCCC(=O)O)C(=O)O)NC(=O)[C@H](CC(C)C)NC(=O)[C@H](Cc1ccc(O)cc1)NC(=O)[C@H](CO)NC(=O)[C@@H](NC(=O)[C@H](CC(=O)O)NC(=O)[C@H](CO)NC(=O)[C@@H](NC(=O)[C@H](Cc1ccccc1)NC(=O)[C@@H](NC(=O)CNC(=O)[C@H](CCC(=O)O)NC(=O)C(C)(C)NC(=O)[C@@H](N)Cc1c[nH]cn1)[C@@H](C)O)[C@@H](C)O)C(C)C)C(=O)N[C@@H](CCC(=O)O)C(=O)N[C@@H](Cc1c[nH]cn1)C(=O)N[C@@H](CC(C)C)C(=O)N[C@H](C(N)=O)C(C)C [compound 76] (H-H[Aib]EGTFTSDVSYLK([AEEA-AEEA-γGlu-C20 diacid])EFAAQQRFLEHLV-NH2)	0.08	20479	–	–	–	122180	0.0794	10000
CC(C)C[C@H](NC(=O)[C@H](Cc1ccccc1)NC(=O)[C@H](CCCNC(=N)N)NC(=O)[C@H](CCC(N)=O)NC(=O)[C@H](CC(C)C)NC(=O)C(C)(C)NC(=O)[C@H](C)NC(=O)[C@H](CCC(=O)O)NC(=O)[C@H](CCC(=O)O)NC(=O)[C@H](CCCCNC(=O)COCCOCCNC(=O)COCCOCCNC(=O)CC[C@H](NC(=O)CCCCCCCCCCCCCCCCCCC(=O)O)C(=O)O)NC(=O)[C@H](CC(C)C)NC(=O)[C@H](Cc1ccc(O)cc1)NC(=O)[C@H](CO)NC(=O)[C@@H](NC(=O)[C@H](CC(=O)O)NC(=O)[C@H](CO)NC(=O)[C@@H](NC(=O)[C@H](Cc1ccccc1)NC(=O)[C@@H](NC(=O)CNC(=O)[C@H](CCC(=O)O)NC(=O)C(C)(C)NC(=O)[C@@H](N)Cc1c[nH]cn1)[C@@H](C)O)[C@@H](C)O)C(C)C)C(=O)N[C@@H](CCC(=O)O)C(=O)N[C@@H](Cc1c[nH]c2ccccc12)C(=O)N[C@@H](CC(C)C)C(=O)N[C@H](C(N)=O)C(C)C [compound 169] (H-H[Aib]EGTFTSDVSYLK([AEEA-AEEA-γGlu-C20 diacid])EEA[Aib]LQRFLEWLV-NH2)	0.08	3552	0.0398	14974	501	–	–	–
CC(C)C[C@H](NC(=O)[C@H](CCC(=O)O)NC(=O)[C@H](CCCCNC(=O)COCCOCCNC(=O)COCCOCCNC(=O)CC[C@H](NC(=O)CCCCCCCCCCCCCCCCCCC(=O)O)C(=O)O)NC(=O)[C@H](CC(C)C)NC(=O)[C@H](CCC(=O)O)NC(=O)[C@H](CO)NC(=O)[C@@H](NC(=O)[C@H](CC(=O)O)NC(=O)[C@H](CO)NC(=O)[C@@H](NC(=O)[C@H](Cc1ccccc1)NC(=O)[C@@H](NC(=O)CNC(=O)[C@H](CCC(=O)O)NC(=O)C(C)(C)NC(=O)[C@@H](N)Cc1c[nH]cn1)[C@@H](C)O)[C@@H](C)O)C(C)C)C(=O)N[C@@H](C)C(=O)N[C@@H](C)C(=O)N[C@@H](CCC(N)=O)C(=O)N[C@@H](CCC(N)=O)C(=O)N[C@@H](CCCNC(=N)N)C(=O)N[C@@H](Cc1ccccc1)C(=O)N[C@@H](CC(C)C)C(=O)N[C@@H](CCC(=O)O)C(=O)N[C@@H](Cc1c[nH]cn1)C(=O)N[C@@H](CC(C)C)C(=O)N[C@H](C(N)=O)C(C)C [compound 99] (H-H[Aib]EGTFTSDVSELK([AEEA-AEEA-γGlu-C20 diacid])ELAAQQRFLEHLV-NH2)	0.17	87225	0.0158	52372	794	–	–	–

Source: patent publication US20260201008A1, “SECRETIN-DERIVED GLP1R SELECTIVE AGONISTS” (GUBRA A/S, priority 2023, published 2026)
